# According to BindingDB's records for patent US20240208932 (Xizang Haisco Pharmaceutical, 2024):
# Experiments:
# Experiment in all cases: CYP450 Enzyme Inhibition Assay
# Cytochrome P450 3A4 = Cytochrome P450 3A4 (Homo sapiens, UniProt P08684)
# Experimental: (§1) The purpose of this study was to evaluate the effect of the test compound on the activity of five isoenzymes (CYP1A2, CYP2C9, CYP2C19, CYP2D6 and CYP3A4) of human liver microsomal cytochrome P450 (CYP) by using an in vitro testing system. The specific probe substrates of CYP450 isoenzymes were incubated with human liver microsomes and test compounds of different concentrations, and reduced nicotinamide adenine dinucleotide phosphate (NADPH) was added to initiate the reaction. After the completion of the reaction, the sample was treated and liquid chromatography-tandem mass spectrometry (LC-MS/MS) was used to quantitatively detect metabolites produced by specific substrates, changes in CYP enzyme activity were determined, and IC50 value was calculated to evaluate the inhibitory potential of the test compound on each CYP enzyme subtype.
# Cytochrome P450 2C9 = Cytochrome P450 2C9 (Homo sapiens, UniProt P11712)
# Experimental: as §1
# Cytochrome P450 1A2 = biological target: T1, Cytochrome P450 1A2 (Homo sapiens, UniProt P05177)
# T1 sequence (P05177 whole entry): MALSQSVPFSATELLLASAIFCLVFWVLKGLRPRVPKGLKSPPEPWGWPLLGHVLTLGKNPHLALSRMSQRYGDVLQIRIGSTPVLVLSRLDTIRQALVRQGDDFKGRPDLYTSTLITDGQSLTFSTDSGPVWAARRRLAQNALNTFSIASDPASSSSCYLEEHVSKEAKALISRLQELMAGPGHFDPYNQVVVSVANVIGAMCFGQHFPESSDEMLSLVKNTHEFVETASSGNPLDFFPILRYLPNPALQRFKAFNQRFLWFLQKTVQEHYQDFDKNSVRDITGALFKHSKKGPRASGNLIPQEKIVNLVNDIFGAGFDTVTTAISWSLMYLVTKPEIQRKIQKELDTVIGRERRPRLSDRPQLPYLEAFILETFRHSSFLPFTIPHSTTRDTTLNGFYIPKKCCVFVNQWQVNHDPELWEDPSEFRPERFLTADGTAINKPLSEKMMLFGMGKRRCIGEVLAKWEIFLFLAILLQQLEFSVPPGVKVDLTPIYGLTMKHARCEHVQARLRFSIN
# Experimental: as §1
# Cytochrome P450 2C19 = Cytochrome P450 2C19 (Homo sapiens, UniProt P33261)
# Experimental: as §1
# Cytochrome P450 2D6 = Cytochrome P450 2D6 (Homo sapiens, UniProt P10635)
# Experimental: as §1
# Sequence of Cytochrome P450 3A4 (P08684 whole entry): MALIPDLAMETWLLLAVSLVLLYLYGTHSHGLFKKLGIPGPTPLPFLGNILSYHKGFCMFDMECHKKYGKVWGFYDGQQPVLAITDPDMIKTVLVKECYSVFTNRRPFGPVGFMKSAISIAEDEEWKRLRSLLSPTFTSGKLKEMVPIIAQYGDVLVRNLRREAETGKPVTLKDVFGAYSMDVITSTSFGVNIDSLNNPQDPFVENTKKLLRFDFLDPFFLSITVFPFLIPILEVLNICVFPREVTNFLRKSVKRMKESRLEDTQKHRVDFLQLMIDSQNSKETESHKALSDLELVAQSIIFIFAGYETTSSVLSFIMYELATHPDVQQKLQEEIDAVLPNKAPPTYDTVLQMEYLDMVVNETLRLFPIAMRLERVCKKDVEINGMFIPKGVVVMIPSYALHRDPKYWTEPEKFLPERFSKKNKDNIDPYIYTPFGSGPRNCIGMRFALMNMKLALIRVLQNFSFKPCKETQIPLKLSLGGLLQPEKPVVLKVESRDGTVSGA
# Sequence of Cytochrome P450 2D6 (P10635 whole entry): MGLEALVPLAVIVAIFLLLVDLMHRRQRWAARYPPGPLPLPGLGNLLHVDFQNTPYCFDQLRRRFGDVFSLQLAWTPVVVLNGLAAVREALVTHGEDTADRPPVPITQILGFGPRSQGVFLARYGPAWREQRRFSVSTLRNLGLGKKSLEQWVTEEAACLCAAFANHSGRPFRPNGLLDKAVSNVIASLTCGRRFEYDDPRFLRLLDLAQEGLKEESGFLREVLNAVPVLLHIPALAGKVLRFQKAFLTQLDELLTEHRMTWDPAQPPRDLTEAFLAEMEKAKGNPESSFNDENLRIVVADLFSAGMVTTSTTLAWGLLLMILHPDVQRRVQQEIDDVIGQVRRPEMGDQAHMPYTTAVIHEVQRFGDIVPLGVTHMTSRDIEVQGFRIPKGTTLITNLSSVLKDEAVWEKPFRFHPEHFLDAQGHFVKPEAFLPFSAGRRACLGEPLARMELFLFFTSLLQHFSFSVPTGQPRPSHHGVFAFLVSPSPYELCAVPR
# Sequence of Cytochrome P450 2C9 (P11712 whole entry): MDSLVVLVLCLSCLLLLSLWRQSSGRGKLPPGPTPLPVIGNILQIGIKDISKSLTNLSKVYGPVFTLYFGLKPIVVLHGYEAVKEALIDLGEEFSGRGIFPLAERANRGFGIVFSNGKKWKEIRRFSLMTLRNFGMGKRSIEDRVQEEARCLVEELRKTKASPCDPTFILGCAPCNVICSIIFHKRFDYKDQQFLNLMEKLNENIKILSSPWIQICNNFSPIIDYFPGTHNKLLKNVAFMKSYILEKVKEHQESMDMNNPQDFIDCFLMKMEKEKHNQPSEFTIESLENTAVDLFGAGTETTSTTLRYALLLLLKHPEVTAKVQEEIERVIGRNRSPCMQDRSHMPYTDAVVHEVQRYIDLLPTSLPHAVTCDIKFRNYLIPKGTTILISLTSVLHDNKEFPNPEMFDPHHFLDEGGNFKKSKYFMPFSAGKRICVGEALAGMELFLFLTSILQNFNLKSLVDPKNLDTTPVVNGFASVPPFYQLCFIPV
# Sequence of Cytochrome P450 2C19 (P33261 whole entry): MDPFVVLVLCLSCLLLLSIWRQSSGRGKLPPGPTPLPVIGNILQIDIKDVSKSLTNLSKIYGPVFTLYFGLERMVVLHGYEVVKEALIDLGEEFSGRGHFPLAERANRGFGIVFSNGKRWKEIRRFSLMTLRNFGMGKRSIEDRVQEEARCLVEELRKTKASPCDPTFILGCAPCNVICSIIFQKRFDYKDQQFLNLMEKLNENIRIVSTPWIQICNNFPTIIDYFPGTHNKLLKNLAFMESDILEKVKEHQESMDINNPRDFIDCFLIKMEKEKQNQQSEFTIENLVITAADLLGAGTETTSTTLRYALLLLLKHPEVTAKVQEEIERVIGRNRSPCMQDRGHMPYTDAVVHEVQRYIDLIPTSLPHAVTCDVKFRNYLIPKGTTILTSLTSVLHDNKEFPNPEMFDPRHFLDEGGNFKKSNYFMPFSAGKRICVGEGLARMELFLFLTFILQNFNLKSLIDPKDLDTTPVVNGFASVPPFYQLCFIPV
smiles,measurement,setting,value
"C[C@@H]1Cc2c([nH]c3ccccc23)[C@H](c2c(F)cc(N[C@H]3CCN(CCCF)C3)cc2F)N1CC(F)(F)F [WO2021228210, Compound 4]",IC50,Cytochrome P450 3A4,12.8 µM
same,IC50,Cytochrome P450 2C9,15.6 µM
same,IC50,Cytochrome P450 1A2,15.6 µM
same,IC50,Cytochrome P450 2C19,19.1 µM
same,IC50,Cytochrome P450 2D6,13.8 µM
